From patent US20070172957A1, “Methods of identifying anti-inflammatory macrolides” (TAISHO PHARMACEUTICAL CO., LTD., priority 2004, published 2007)

Test system: genes predictive for the anti-inflammatory macrolide effect
Assay: Genes statistically predictive of Clari response: differentially expressed with Clari but not the inactive macrolides MAA or Josa (Appendix E)
Type: cell-based
Description: In the case of the above-mentioned (i) related to arachidonic acid biosynthesis, specifically, methods of the embodiment involve assaying whether a test macrolide alters biosynthesis of arachidonic acid, alters the expression or activities of enzymes involved in the biosynthesis or activation of arachidonic acid (e.g., arachidonic acid CoA synthetase, delta-6 desaturase, fatty acid elongase, and delta-5 desaturase, AA-related genes in Tables 2 and 3), or alters the expression of genes identified as predictive for the anti-inflammatory macrolide effect (Appendix E). Assays in which arachidonic acid or gene expression or enzymatic activity is detected can be carried out after contacting a cell with a test macrolide. Any cell line that secretes prostaglandin or produces arachidonic acid can be used. Epithelial and macrophages lines (e.g., A549 or THP-1) are suitable for this purpose; other cell lines can be identified by carrying out assays such as those described in the specific Examples, below. Alternatively, screening assays can be carried out after adding a test macrolide to an in vitro cell system (e.g., a cellular extract or liver microsome preparation) or an in vitro enzyme assay system.

CO[C@@H]1[C@@H](O[C@@H]2O[C@H](C)[C@@H](O[C@H]3C[C@@](C)(O)[C@@H](OC(=O)CC(C)C)[C@H](C)O3)[C@H](N(C)C)[C@H]2O)[C@@H](CC=O)C[C@@H](C)[C@@H](O)/C=C/C=C/C[C@@H](C)OC(=O)C[C@H]1OC(C)=O [josamycin]
0.87: group mean, gene CHK (SpotID 48672, MAA and Josa vs. Clari)
1.34: group mean, gene PTK2B (SpotID 47524, MAA and Josa vs. Clari)
1.00: mean group, FLJ20699 (SpotID 46633, pooled group mean) | mean group, PACE (SpotID 46923, pooled group mean) | group mean, gene TFPI2 (SpotID 46991, MAA and Josa vs. Clari) | group mean, gene PTGER1 (SpotID 47995, MAA and Josa vs. Clari) | group mean, gene SNAPC1 (SpotID 48182, MAA and Josa vs. Clari) | group mean, gene FN1 (SpotID 48328, MAA and Josa vs. Clari) | group mean, gene FN1 (SpotID 48348, MAA and Josa vs. Clari) | group mean, gene DIP2 (SpotID 48643, MAA and Josa vs. Clari)
1.15: group mean, gene ERF (SpotID 47354, MAA and Josa vs. Clari)
0.84: group mean, gene IKKE (SpotID 48725, MAA and Josa vs. Clari) | mean group, IKKE (SpotID 48725, pooled group mean)
1.04: group mean, gene KIAA1172 (SpotID 46679, MAA and Josa vs. Clari) | mean group, KIAA1172 (SpotID 46679, pooled group mean) | group mean, gene PRKAR1A (SpotID 46838, MAA and Josa vs. Clari) | mean group, NUBP1 (SpotID 47241, pooled group mean) | group mean, gene DCTN1 (SpotID 47439, MAA and Josa vs. Clari) | mean group, DCTN1 (SpotID 47439, pooled group mean) | group mean, gene RANBP1 (SpotID 47446, MAA and Josa vs. Clari) | mean group, RANBP1 (SpotID 47446, pooled group mean) | mean group, SERPINA1 (SpotID 47522, pooled group mean) | group mean, gene YWHAE (SpotID 47911, MAA and Josa vs. Clari) | group mean, gene MAPK9 (SpotID 48365, MAA and Josa vs. Clari) | mean group, MAPK9 (SpotID 48365, pooled group mean) | group mean, gene CNOT2 (SpotID 48396, MAA and Josa vs. Clari) | group mean, gene HSPBP1 (SpotID 48693, MAA and Josa vs. Clari) | mean group, HSPBP1 (SpotID 48693, pooled group mean)
0.97: group mean, gene HEXA (SpotID 46882, MAA and Josa vs. Clari) | group mean, gene MCM2 (SpotID 47123, MAA and Josa vs. Clari) | group mean, gene MAD4 (SpotID 47705, MAA and Josa vs. Clari) | group mean, gene DNMT1 (SpotID 48333, MAA and Josa vs. Clari) | mean group, CCT3 (SpotID 48345, pooled group mean) | group mean, gene MGEA5 (SpotID 48411, MAA and Josa vs. Clari) | mean group, MGEA5 (SpotID 48411, pooled group mean) | group mean, gene M6PR (SpotID 48451, MAA and Josa vs. Clari) | group mean, gene MCM5 (SpotID 48470, MAA and Josa vs. Clari) | mean group, NFE2L1 (SpotID 48557, pooled group mean) | group mean, gene SDCBP (SpotID 48646, MAA and Josa vs. Clari) | mean group, SDCBP (SpotID 48646, pooled group mean) | group mean, gene SIGIRR (SpotID 48705, MAA and Josa vs. Clari) | group mean, gene P4HA1 (SpotID 48707, MAA and Josa vs. Clari) | mean group, P4HA1 (SpotID 48707, pooled group mean)
1.07: mean group, ARHGAP1 (SpotID 46648, pooled group mean) | group mean, gene BCKDK (SpotID 47949, MAA and Josa vs. Clari)
1.10: group mean, gene ARHGAP1 (SpotID 47192, MAA and Josa vs. Clari) | group mean, gene HSPA9B (SpotID 47661, MAA and Josa vs. Clari) | group mean, gene SF3B3 (SpotID 47947, MAA and Josa vs. Clari)
1.21: mean group, SpotID 48486 (SpotID 48486 (gene symbol not given), pooled group mean)
1.05: group mean, gene METAP2 (SpotID 46935, MAA and Josa vs. Clari) | mean group, METAP2 (SpotID 46935, pooled group mean) | mean group, P4HB (SpotID 47366, pooled group mean) | group mean, gene COX15 (SpotID 47951, MAA and Josa vs. Clari) | group mean, gene RPL13A (SpotID 48500, MAA and Josa vs. Clari) | mean group, RPL13A (SpotID 48500, pooled group mean) | mean group, FECH (SpotID 48654, pooled group mean)
0.99: mean group, EPOR (SpotID 47314, pooled group mean) | group mean, gene INPP5E (SpotID 47939, MAA and Josa vs. Clari)
0.94: group mean, gene MKNK2 (SpotID 46825, MAA and Josa vs. Clari) | mean group, MKNK2 (SpotID 46825, pooled group mean) | group mean, gene ITGB5 (SpotID 47212, MAA and Josa vs. Clari) | group mean, gene HKE4 (SpotID 47251, MAA and Josa vs. Clari) | mean group, SRF (SpotID 48026, pooled group mean)
0.92: group mean, gene KIAA0251 (SpotID 47131, MAA and Josa vs. Clari)
1.22: mean group, CUTL1 (SpotID 48004, pooled group mean)
0.86: group mean, gene BCL2L2 (SpotID 48006, MAA and Josa vs. Clari)
0.90: mean group, GCS1 (SpotID 47432, pooled group mean) | group mean, gene SCN1B (SpotID 48121, MAA and Josa vs. Clari) | group mean, gene ARHC (SpotID 48280, MAA and Josa vs. Clari)
1.12: group mean, gene MTHFD1 (SpotID 47406, MAA and Josa vs. Clari) | group mean, gene DDC (SpotID 48456, MAA and Josa vs. Clari) | mean group, DDC (SpotID 48456, pooled group mean) | group mean, gene ARAF1 (SpotID 48521, MAA and Josa vs. Clari) | mean group, ARAF1 (SpotID 48521, pooled group mean)
1.03: group mean, gene SERPING1 (SpotID 46579, MAA and Josa vs. Clari) | group mean, gene SNK (SpotID 47418, MAA and Josa vs. Clari) | mean group, SNK (SpotID 47418, pooled group mean) | mean group, SSI-1 (SpotID 47846, pooled group mean) | mean group, FRDA (SpotID 48137, pooled group mean) | group mean, gene CNOT2 (SpotID 48363, MAA and Josa vs. Clari) | group mean, gene USP24 (SpotID 48508, MAA and Josa vs. Clari)
1.08: group mean, gene ARHGDIA (SpotID 46843, MAA and Josa vs. Clari) | mean group, ARHGDIA (SpotID 46843, pooled group mean) | group mean, gene ARHGDIA (SpotID 47535, MAA and Josa vs. Clari) | group mean, gene ZAP3 (SpotID 48160, MAA and Josa vs. Clari) | mean group, ZAP3 (SpotID 48160, pooled group mean)
1.11: mean group, EREG (SpotID 46988, pooled group mean)
0.98: group mean, gene C12orf8 (SpotID 46586, MAA and Josa vs. Clari) | group mean, gene CCNE2 (SpotID 47926, MAA and Josa vs. Clari) | group mean, gene CTSB (SpotID 47937, MAA and Josa vs. Clari) | group mean, gene SFRS7 (SpotID 48149, MAA and Josa vs. Clari) | mean group, SFRS7 (SpotID 48149, pooled group mean) | mean group, BARD1 (SpotID 48461, pooled group mean) | mean group, XBP1 (SpotID 48620, pooled group mean) | mean group, RALA (SpotID 48732, pooled group mean)
1.09: mean group, MSH3 (SpotID 47504, pooled group mean) | group mean, gene TRAP1 (SpotID 47622, MAA and Josa vs. Clari) | mean group, TRAP1 (SpotID 47622, pooled group mean) | group mean, gene HSPA9B (SpotID 47694, MAA and Josa vs. Clari) | mean group, HSPA9B (SpotID 47694, pooled group mean) | group mean, gene PRLR (SpotID 47850, MAA and Josa vs. Clari) | mean group, PRLR (SpotID 47850, pooled group mean) | group mean, gene HIF1A (SpotID 48397, MAA and Josa vs. Clari) | mean group, PPP3CB (SpotID 48717, pooled group mean)
0.91: group mean, gene CDIPT (SpotID 46896, MAA and Josa vs. Clari) | mean group, CDIPT (SpotID 46896, pooled group mean)
1.14: group mean, gene KIAA1922 (SpotID 47755, MAA and Josa vs. Clari) | group mean, gene ERF (SpotID 47898, MAA and Josa vs. Clari) | mean group, MAFB (SpotID 48747, pooled group mean)
0.93: group mean, gene AKR1A1 (SpotID 47249, MAA and Josa vs. Clari) | group mean, gene ADAM11 (SpotID 47352, MAA and Josa vs. Clari) | mean group, ADAM11 (SpotID 47352, pooled group mean) | group mean, gene ENTPD6 (SpotID 47811, MAA and Josa vs. Clari) | mean group, ENTPD6 (SpotID 47811, pooled group mean) | mean group, RPN2 (SpotID 47988, pooled group mean) | group mean, gene CTSH (SpotID 48000, MAA and Josa vs. Clari) | group mean, gene GRB2 (SpotID 48266, MAA and Josa vs. Clari) | mean group, GRB2 (SpotID 48266, pooled group mean) | group mean, gene GCN5L1 (SpotID 48301, MAA and Josa vs. Clari) | mean group, GCN5L1 (SpotID 48301, pooled group mean)
1.01: group mean, gene C2orf3 (SpotID 47034, MAA and Josa vs. Clari) | mean group, C2orf3 (SpotID 47034, pooled group mean) | group mean, gene GOLGB1 (SpotID 47111, MAA and Josa vs. Clari) | group mean, gene KIAA0323 (SpotID 48644, MAA and Josa vs. Clari) | group mean, gene KIAA0217 (SpotID 48804, MAA and Josa vs. Clari) | mean group, KIAA0217 (SpotID 48804, pooled group mean)
1.06: mean group, CETN2 (SpotID 47415, pooled group mean) | group mean, gene RBM3 (SpotID 48471, MAA and Josa vs. Clari)
0.95: mean group, NR4A2 (SpotID 47679, pooled group mean) | group mean, gene BET3 (SpotID 47793, MAA and Josa vs. Clari) | group mean, gene P4HA1 (SpotID 47935, MAA and Josa vs. Clari) | mean group, P4HA1 (SpotID 47935, pooled group mean) | group mean, gene APLP2 (SpotID 48530, MAA and Josa vs. Clari) | mean group, APLP2 (SpotID 48530, pooled group mean)
0.88: group mean, gene MAPK12 (SpotID 48233, MAA and Josa vs. Clari) | mean group, MAPK12 (SpotID 48233, pooled group mean)
1.18: group mean, gene NBS1 (SpotID 47754, MAA and Josa vs. Clari) | mean group, NBS1 (SpotID 47754, pooled group mean)
1.02: group mean, gene HSPBP1 (SpotID 46979, MAA and Josa vs. Clari) | group mean, gene POLA (SpotID 47776, MAA and Josa vs. Clari) | mean group, POLA (SpotID 47776, pooled group mean) | group mean, gene GOT1 (SpotID 47802, MAA and Josa vs. Clari) | mean group, GOT1 (SpotID 47802, pooled group mean) | group mean, gene THBS1 (SpotID 47987, MAA and Josa vs. Clari) | mean group, THBS1 (SpotID 47987, pooled group mean) | group mean, gene OPA1 (SpotID 48192, MAA and Josa vs. Clari) | group mean, gene BAT8 (SpotID 48214, MAA and Josa vs. Clari) | group mean, gene DAXX (SpotID 48235, MAA and Josa vs. Clari) | group mean, gene SERPINB1 (SpotID 48415, MAA and Josa vs. Clari) | mean group, SERPINB1 (SpotID 48415, pooled group mean)
0.96: group mean, gene NFRKB (SpotID 47056, MAA and Josa vs. Clari) | group mean, gene DNASE1L1 (SpotID 47950, MAA and Josa vs. Clari) | mean group, DNASE1L1 (SpotID 47950, pooled group mean) | mean group, USF2 (SpotID 47973, pooled group mean) | group mean, gene MKNK2 (SpotID 48713, MAA and Josa vs. Clari)
